The assay has as its system B6C3F1 mice, ip Sarcoma M5076, median survival T/C. Description: NCI In Vivo Anticancer Drug Screen. Data for tumor model Sarcoma M5076 (intraperitoneal) in B6C3F1 mice. Particulars: endpoint: median survival time, schedule: Q04DX004 (ip), higher = longer survival. An outline of the steps:
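Mice carrying the transplanted tumour received compound treatment. Survival was recorded, and each value is the treated-group measurement divided by that of the vehicle-dosed control group.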

Where [1] appears, read: dose: 25.0 mg/kg/injection, vehicle: saline with Tween-80.
The mark [2] stands for this setting: dose: 50.0 mg/kg/injection, vehicle: saline with Tween-80.
Setting [3] is: dose: 100.0 mg/kg/injection, vehicle: saline with Tween-80.
[4] abbreviates: dose: 200.0 mg/kg/injection, vehicle: saline with Tween-80.
Where [5] appears, read: dose: 400.0 mg/kg/injection, vehicle: saline with Tween-80.
Setting [6] is: dose: 12.5 mg/kg/injection, vehicle: saline with Tween-80.
The mark [7] stands for this setting: dose: 75.0 mg/kg/injection, vehicle: saline with Tween-80.
Setting [8] is: dose: 150.0 mg/kg/injection, vehicle: saline with Tween-80.
The mark [9] stands for this setting: dose: 600.0 mg/kg/injection, vehicle: saline with Tween-80.
Setting [10] is: dose: 50.0 mg/kg/injection, vehicle: Klucel (hydroxypropylcellulose) (HPC).
[11] abbreviates: dose: 100.0 mg/kg/injection, vehicle: Klucel (hydroxypropylcellulose) (HPC).
Where [12] appears, read: dose: 200.0 mg/kg/injection, vehicle: Klucel (hydroxypropylcellulose) (HPC).
Where [13] appears, read: dose: 300.0 mg/kg/injection, vehicle: saline with Tween-80.

“And” between values parts separate entries of the source, which are not always exact repeats. Equal entries are not always repeated. Toxic doses and inconclusive results are not listed.

As for `O=C1C(=O)C(CN2CCOCC2)=C(N2CCOCC2)C(N2CCOCC2)=C1CN1CCOCC1`, the T/C runs as follows: under setting [1], 96 % of control; under setting [2], 101 % of control; under setting [3], 94 % of control; under setting [4], 88 % of control; under setting [5], 92 % of control.

For `Cc1cccc(-n2c(CC#N)n[nH]c2=S)c1`, the T/C was 115 % of control under setting [2]; 109 % of control under setting [3]; 96 % of control under setting [4]; 106 % of control under setting [5]; 88 % of control (dose: 800.0 mg/kg/injection, vehicle: saline with Tween-80).

`CSc1c(N(C)C)c(=O)c1=S`: the T/C by setting is: under setting [6], 102 % of control; under setting [1], 103 % of control; under setting [2], 98 % of control; under setting [3], 93 % of control.

In the case of `NNC(=O)c1ccc(OCc2nc3ccccc3[nH]2)cc1`, the T/C by setting is: under setting [1], 99 % of control; under setting [2], 102 % of control; under setting [3], 101 % of control; under setting [4], 106 % of control; under setting [5], 97 % of control.

`O=c1oc2c(O)c(O)cc3c(=O)oc4c(O)c(O)cc1c4c23`: the T/C was 123 % of control (dose: 75.0 mg/kg/injection, vehicle: Klucel (hydroxypropylcellulose) (HPC)); 115 % of control (dose: 150.0 mg/kg/injection, vehicle: Klucel (hydroxypropylcellulose) (HPC)); 120 % of control (dose: 300.0 mg/kg/injection, vehicle: Klucel (hydroxypropylcellulose) (HPC)); 111 % of control (dose: 600.0 mg/kg/injection, vehicle: Klucel (hydroxypropylcellulose) (HPC)); 108 % of control (dose: 1200.0 mg/kg/injection, vehicle: Klucel (hydroxypropylcellulose) (HPC)).

As for `Cc1c2c(ccc3ccccc32)c[n+]2ccccc12`, the T/C (dose: 1.5 mg/kg/injection, vehicle: saline with Tween-80) was 97 % of control and 104 % of control and 109 % of control; the T/C (dose: 3.0 mg/kg/injection, vehicle: saline with Tween-80) was 92 % of control and 97 % of control and 104 % of control; the T/C (dose: 6.0 mg/kg/injection, vehicle: saline with Tween-80) is 92 % of control and 107 % of control and 115 % of control; the T/C (dose: 12.0 mg/kg/injection, vehicle: saline with Tween-80) is 92 % of control.

For `CC(C)NC(=O)OCc1c(COC(=O)NC(C)C)c(-c2ccc(Cl)c(Cl)c2)n2c1CCC2`, the T/C reads like this: under setting [7], 161 % of control; (dose: 108.0 mg/kg/injection, vehicle: saline with Tween-80) 188 % of control; under setting [8], 186 % of control; (dose: 180.0 mg/kg/injection, vehicle: saline with Tween-80) 114 % of control; under setting [9], 152 % of control.

Take `N#CC(=C1C=CC(=NO)C=C1)c1ccc(Cl)cc1`: under setting [9], the T/C was 96 % of control.

Regarding `C/C(=N\NC(=S)N1CC2CCC(CC2)C1)c1cccc(C)n1`, the T/C runs as follows: (dose: 6.25 mg/kg/injection, vehicle: saline with Tween-80) 104 % of control and 107 % of control; under setting [6], 101 % of control and 106 % of control and 116 % of control; under setting [1], 104 % of control and 110 % of control and 115 % of control; under setting [2], 101 % of control and 107 % of control and 119 % of control.

On to `COc1cc(N2C(=O)C(=O)C(C(C)=O)C2=O)c(OC)cc1Cl` (stereo unspecified), for which the T/C under setting [10] was 102 % of control; the T/C under setting [11] is 102 % of control; the T/C under setting [12] was 101 % of control; the T/C (dose: 400.0 mg/kg/injection, vehicle: Klucel (hydroxypropylcellulose) (HPC)) is 102 % of control.

Consider `CC(C)NCC(O)CC(c1ccccc1)c1ccccc1` (stereo unspecified), for which the T/C by setting is: under setting [6], 95 % of control; under setting [1], 101 % of control; under setting [2], 98 % of control; under setting [3], 91 % of control.

With `c1ccc(OCC2CO2)c(OCC2CO2)c1` (stereo unspecified), the T/C is 111 % of control and 121 % of control under setting [2]; 118 % of control and 123 % of control under setting [3]; 156 % of control and 173 % of control under setting [4].

`CN1C=C/C(=C/[N+](=O)[O-])N(C)C1=O`: the T/C reads like this: (dose: 25.0 mg/kg/injection, vehicle: Klucel (hydroxypropylcellulose) (HPC)) 103 % of control; under setting [10], 103 % of control; under setting [11], 99 % of control; under setting [12], 103 % of control.

Regarding `CCOC(=O)NC1CCc2cc(OC)c(OC)c(OC)c2-c2ccc(OC)c(=O)cc21` (stereo unspecified), the T/C (dose: 2.5 mg/kg/injection, vehicle: Klucel (hydroxypropylcellulose) (HPC)) was 150 % of control; the T/C (dose: 5.0 mg/kg/injection, vehicle: Klucel (hydroxypropylcellulose) (HPC)) is 183 % of control; the T/C (dose: 10.0 mg/kg/injection, vehicle: Klucel (hydroxypropylcellulose) (HPC)) is 176 % of control; the T/C (dose: 20.0 mg/kg/injection, vehicle: Klucel (hydroxypropylcellulose) (HPC)) was 161 % of control and 178 % of control.

Consider `NCCCN=c1ccc2c3c1c(O)c1c(O)ccc(=O)c1c3[nH]n2CCNCCO`, for which the T/C (dose: 8.0 mg/kg/injection, vehicle: water) was 171 % of control and the T/C (dose: 16.0 mg/kg/injection, vehicle: water) is 186 % of control.

On to `O=c1c(O)c(-c2cc(O)c(O)c(O)c2)oc2cc(O)cc(O)c12`, for which the T/C runs as follows: under setting [7], 111 % of control; under setting [8], 111 % of control; under setting [13], 101 % of control; under setting [9], 99 % of control.

Take `C=C(OC)C(Nc1cc(OC)c(OC)cc1C(=O)OC1CC(O[C@@H]2C(=O)C(NC(=O)OC)=C3/C(=C\CSSSC)[C@]2(O)C#C/C=C\C#C[C@@H]3OC2OC(C)C(NOC3CC(O)C(SC)C(C)O3)C(O)C2OC2CC(OC)C(NCCC)CO2)OC(C)C1O)OC` (stereo partly specified): the T/C reads like this: (dose: 0.32 micrograms/kg/injection, vehicle: saline + alcohol) 152 % of control; (dose: 1.28 micrograms/kg/injection, vehicle: saline + alcohol) 156 % of control.

For `CCOC(=O)c1cc(-c2ccccc2)c(OC)c(=O)nc1-c1ccccc1`, the T/C under setting [2] was 89 % of control.

As for `Clc1cccc2[nH]c(-c3ccncc3)nc12`, the T/C runs as follows: (dose: 37.5 mg/kg/injection, vehicle: saline with Tween-80) 104 % of control; under setting [7], 111 % of control; under setting [8], 98 % of control; under setting [13], 105 % of control; under setting [9], 100 % of control.
